Reference: a melting point compilation (Tetko et al.; mined from patent text by program, amines drawn as free bases though some values may be those of a salt)

SMILES | melting point [°C]
CC(C)C(NC(=O)NCc1ccccn1)C(=O)NC(Cc1ccccc1)C(O)C(Cc1ccccc1)NC(=O)C(NC(=O)NCc1ccccn1)C(C)C (configuration not stated) | 198 to 199
CC(c1cc2cc(Cl)ccc2o1)N(O)C(N)=O (configuration not stated) | 174 to 175
CCOC(=O)C1=C(C)N(C(C)=O)C(c2csc(C)n2)=NC1C1(F)C=CC=CC1Cl (configuration not stated) | 164 to 166
CCN(C)CCc1[nH]c2ccccc2c1CSc1ccccc1 | 77 to 79
COc1ccsc1C(=O)C1C(=O)N(C(N)=O)c2ccc(Cl)cc21 (configuration not stated) | 86 to 88
CN(CC(=O)O)S(=O)(=O)c1ccc(-c2ccc(NC(=O)c3cc4ccccc4o3)cc2)cc1 | 226 to 228
COc1cccc2c1C[C@@H](NC=O)CC2 | 140 to 141
CCNC(=O)CN1C(=O)C(NC(=O)OCc2ccccc2)N=C(c2ccccc2)c2ccccc21 (configuration not stated) | 149
N#Cc1cccc(C(=O)NC2CCCNC(=O)C2)c1 (configuration not stated) | 221 to 222
COc1ccc(-c2sc3c(c2C)c(=O)c(CO)cn3Cc2ccccc2F)cc1 | 159 to 160
Cc1cccc(NC(=O)NC2N=C(c3ccccc3F)c3ccccc3N(CC(=O)NC3C4CC5CC(C4)CC3C5)C2=O)c1 (configuration not stated) | 245 to 246
N#Cc1ccc2oc3ncccc3c(=O)c2c1 | 260
CC(C)[C@@H](CO)Nc1nc(Nc2cccc(NS(C)(=O)=O)c2)nc2[nH]ccc12 | 106 to 109
ClCC(CCl)(CCl)c1cc(Cl)nnc1Cl | 111 to 112
Nc1cccc2c1CN(C1CCC(=O)NC1=O)C2=O (configuration not stated) | 250 to 252
CCOC(=O)c1nc(-c2ccc(OC)c(OC)c2)cs1 | 100 to 102
CNC(=O)c1cc(C(=O)O)c(Nc2ccc(I)cc2C)c(F)c1F | 254 to 259
CN1Cc2cc(C(O)CN3CCC(COc4ccccc4)CC3)ccc2NC1=O (configuration not stated) | 205
COc1cc(/C=C/c2ccc(F)cc2)cc(OC)c1 | 46 to 48
CC(C)[C@H](NC(=O)[C@H](Cc1ccccc1)NC(=O)c1ccccc1)C(=O)O | 191
CN(C(=O)Nc1ccc(Cl)cc1)c1nnc(Cl)s1 | 250
O=C(OCC1CC1)c1ncn2c1[C@@H]1CCCN1C(=O)c1c-2ccc(Cl)c1Cl | 185 to 186
CCOC(=O)c1nc(C)n2c1CN=C(c1ccccc1F)c1cc(C#N)ccc1-2 | 272 to 274
COc1ccccc1N1CCN(CCNC(=O)c2nsc3ccccc23)CC1 | 107 to 110

SMILES | melting point [°C]
COC(=O)C1=C(C)Nc2ccnn2C1c1ccccc1C(F)(F)F (configuration not stated) | 209 to 210
C[C@@H]1C[C@@H](O)CC(C)(C)C1=O | 49 to 50
C#CCn1nc(-c2ccc(SC)cc2)c(-c2ccc(F)cc2)c1C(F)(F)F | 136 to 138
Cc1ccc(-c2nc(C(F)(F)F)nc(Cl)c2-c2ccccc2)cc1 | 97 to 100
CN1CCC(C2(O)c3ccccc3C=Cc3ccc(C#N)cc32)CC1 (configuration not stated) | 219 to 221
CCOc1nc(N)c2ncn(C3C=CCCC3)c2n1 (configuration not stated) | 67 to 72
Oc1ncc(-c2ccccc2Cl)cn1 | 232 to 233
C=CC(=O)NCN1CCCC1=O | 73 to 74
Nc1nccc(Oc2ccc3c(C(=O)Nc4ccc(F)c(C(F)(F)F)c4)nsc3c2)n1 | 237 to 239
O=C(Nc1ccc(OCCN2CCOCC2)c2ccccc12)c1cc(F)cc(OC2CCCC2)c1 | 117 to 119
CCCN1C(=O)C2CC2(c2ccc(N)cc2)C1=O (configuration not stated) | 97
OCCC(CCO)c1ccncc1 | 66 to 68
COC1OCC2C(O)C3CCCCC3CC12 (configuration not stated) | 75 to 77
CCCc1c(OCCCCc2nnn[nH]2)ccc(C(C)=O)c1O | 114 to 115
Fc1ccc2c(C3=CCN(CC4CCc5ccccc5O4)CC3)c[nH]c2c1 (configuration not stated) | 160 to 161
CC1(C)CC(=O)C(S(=O)Cc2ccc(F)cc2)=C(O)C1 (configuration not stated) | 122 to 125
COC(=O)c1sccc1Oc1ncc(OC)c(OC)n1 | 107 to 109
O=C(CNC(=O)C(Cc1ccccc1)NC(=O)C1CCCN1)Oc1c(Cl)c(Cl)c(Cl)c(Cl)c1Cl (configuration not stated) | 182 to 184
COC(=O)c1ccc(I)cc1S(N)(=O)=O | 176 to 177
O=C1CCC(N2C(=O)c3cccc(Nc4ccc5c(c4)OCO5)c3C2=O)C(=O)N1 (configuration not stated) | > 260
CC[C@H](C)C(OCc1ccccc1)[C@@H]1[C@H]([N+](=O)[O-])[C@H](c2ccccc2)N[C@]1(C)C(=O)NCCC(=O)O (some centres not stated) | 104 to 105
COc1ccc2cc(NC(C)=O)cc(C)c2n1 | 193 to 196
CCN(CC)c1ccc(Nc2ncc3ccc(=O)n(CC)c3n2)cc1 | 108 to 109
CCOC(=O)C(NC(=O)C(C)C)C(=O)Cc1ccc(Cl)cc1Cl (configuration not stated) | 139 to 140

SMILES | melting point [°C]
CC(=O)OCC(=O)C1=CCC2C3CCC4=CC(=O)C=CC4(C)C3C(O)CC12C (configuration not stated) | 203 to 205
O=C(CCCOc1cc(-c2ccccc2)ccc1O)NO | 148 to 152
O=C(Nc1ccc([N+](=O)[O-])cc1Cl)OCCCl | 128 to 130
CS(=O)(=O)Nc1c(CC(=O)O)cccc1Oc1ccccc1Cl | 159 to 163
Cc1cc2nc3ccccc3sc-2c(Cl)c1=O | 206
O=C(CCc1ccccc1[N+](=O)[O-])c1c(O)c2cccnc2n(-c2ccccc2)c1=O | 238 to 240
Cc1ccccc1OCC(O)CN1CCC(N2CCCNC2=O)CC1 (configuration not stated) | 145 to 147
CCn1cc(C(=O)O)c(=O)c2cc(F)c(-c3csc(CNC)n3)c(O)c21 | 242 to 246
CNC(=O)N(OC(=O)OC)c1ccc(Cl)cc1 | 145 to 146
CN1C(=O)Cc2cc(C(=O)[C@H]3C[C@H]3C(=O)O)ccc21 (relative stereo) | 237 to 240
COC(=O)CCCC#CCn1c(-c2ccccc2)c(-c2ccccc2)n(-c2ccccc2)c1=O | 133 to 134
CCCCCCn1cnc2cnc3ccccc3c21 | 75 to 77
CCOc1nc(C(F)(F)F)cc(=O)n1-c1cc(C(=O)OC)c(Cl)cc1F | 96 to 98
C=CCN1CC(c2ccc([N+](=O)[O-])cc2F)CCS1(=O)=O (configuration not stated) | 121
CN1C(c2cccc(F)c2)c2ccccc2S1(=O)=O (single isomer, unassigned; (+)) | 147
c1cc2c3c(c1)C[C@@H]1CCC[C@@H]1N3CCNC2 (relative stereo) | 180 to 190
CN1CCN(C2=Nc3cc(Br)ccc3N3CCc4cccc2c43)CC1 | 153 to 155
CCCCc1ccc2c(c1)-c1[nH]c(C(=O)OC)cc(=O)c1CS2 | 144 to 146
Cc1ccc(NC(=O)c2ccc3ncccc3c2)cc1NC(=O)c1cccc(OCCN2CCOCC2)c1 | 216 to 217
CN(C)C=C1CN=C(c2ccccc2Cl)c2ccccc2C1=O | 155 to 157
COc1cc(C(=O)O)c(N)cc1C | 193 to 196
Cc1csc2nc(-n3cccn3)nc(NCc3ccc4c(c3)OCO4)c12 | 210
O=C(CCCCC1CCSS1)n1ccnc1 (configuration not stated) | 37 to 39

The remaining lines, values ahead:

melting point [°C] | SMILES
145 to 147 | O=C(O)CC1COc2cc(Cl)c(Cl)cc2O1 (configuration not stated)
193 to 195 | CC1Cc2cc3c(cc2C(c2ccc(NC=O)cc2)=NN1C=O)OCO3 (configuration not stated)
154 to 157 | Cc1ccc(S(=O)(=O)C(CC#Cc2ccc(Cl)cc2)C(=O)O)cc1 (configuration not stated)
192 to 194 | COc1cc(O)ccc1/C=C/c1ccc(O)cc1
205 | CCOc1ccc2c(c1)n(C1CCCCC1)c(=O)n2S(=O)(=O)c1ccc(C(=O)O)cc1OC
163 to 167 | CC1(C)CC(=NNC(=N)NN=C2CC(C)(C)NC(C)(C)C2)CC(C)(C)N1
173 to 175 | CNC(=O)c1cc2c(Oc3ccc(C(=O)N4CCOCC4)cc3)cncc2s1
175 | COC(=O)c1cnn(O)c1
157 to 162 | O=S(=O)(c1ccc(OCCO)cc1)C(Br)(Br)Br
160 to 162 | C[C@@H](N1CCN(S(=O)(=O)c2ccc([N+](=O)[O-])cc2)CC1)[C@](O)(Cn1cncn1)c1ccc(F)cc1F
307 to 308 | COc1ccc(/C(C)=C/c2ccc(C(=O)O)cc2)cc1C12CC3CC(CC(C3)C1)C2
144 to 146 | CCOC(=O)N1CCc2nc(-c3ccncn3)cc(=O)n2CC1
159 to 160 | COCOc1cc(Cl)ccc1-c1cc(-c2cccc(C(=O)OC)c2)c(C#N)c(N)n1
257 to 258 | Cn1ncc2c(=O)n3c(nc21)SCC3
249 to 251 | O=C(O)Cn1c(-c2ccc([N+](=O)[O-])cc2)nc2cccnc21
209 to 210 | COc1cccc(-c2c(C)c(NC(=O)CC(C)(C)C)c(C)c3c2OCC3c2ccc(C(C)C)cc2)c1 (configuration not stated)

melting point [°C] | SMILES
167 | CCOc1c(C#N)c(C#N)c(OCC)c2ccccc12
136 to 137 | CN1CCc2c([nH]c(Br)c2Br)C(c2ccccc2)C1 (configuration not stated)
223 to 225 | CC(C)C(=O)N[C@@H]1CCc2c(c3cc(C#N)ccc3n2Cc2cccc(F)c2)C1
94 | O=C(OCc1ccnc2ccccc12)ON1C(=O)CCC1=O
120 | CCOC(=O)c1ccc2cccc([N+](=O)[O-])c2c1
269 to 271 | CS(=O)(=O)Nc1ccc(C2CCN(c3ccncc3)CC2)cc1
150 | C=CCn1c(C)nc2c3c(c(C(=O)OCC)cc21)CCC1(Cc2ccccc2C1)N3
200 | O=C(O)c1cc2c(F)c(F)c(F)c(F)c2s1
165 to 167 | COc1ccc(-n2nc(Sc3ccc(OC(F)(F)F)cc3)c(C)c(C#N)c2=O)cc1
196 to 199 | CN(N=Cc1ccco1)C(=O)c1[nH]c2ccccc2c1-c1ccccc1
177 to 178 | COC(=O)c1cnc(S)n1Cc1cc(F)cc(F)c1
90 to 110 | CCOC(=O)c1c(C(C)C)nc2onc(C)c2c1-c1ccc(F)cc1
244 to 245 | Clc1ccc(-c2nc[nH]c2-c2cccs2)cc1
234 to 236 | CCOC(=O)c1nc(N)sc1-c1cn2c(C)cccc2n1
192 to 198 | COc1ccc(-c2cncn2-c2ccc(S(C)(=O)=O)cc2)c(Cl)n1
